How the values were obtained:
[1] = tested on: Neuroblastoma SH—SY5Y cells (SH/APPwt) with human wild-type β-APP excessively expressed; experiment: Measurement of β-amyloid (Aβ) production inhibitory effect in cell; assay type: cell-based; conditions: 24 hours incubation, Amyloid β 1-40 by HTRF, read-out: amount needed to inhibit Aβ production by 50% (IC50)
Description: Neuroblastoma SH—SY5Y cells (SH/APPwt) with human wild-type p-APP excessively expressed therein were prepared at 8×10^5 cells/mL, and 150 μl portions thereof were inoculated into each well of a 96-well culture plate (Falcon). The cells were cultured for 2 hours at 37° C. in a 5% gaseous carbon dioxide incubator. Then, a solution which had been preliminarily prepared by adding and suspending the test compound (DMSO (dimethyl sulfoxide) solution) so as to be 2 μl/50 μl medium was added to the cell sap. Namely, the final DMSO concentration was 1%, and the amount of the cell culture was 200 μl. After the incubation was performed for 24 hours from the addition of the test compound, 100 μl of the culture supernatant was collected from each fraction. The amount of the Aβ in each fraction was measured.
The Aβ amount was measured as follows. 10 μl of a homogeneous time resolved fluorescence (HTRF) measurement reagent (Amyloid β 1-40 peptide; IBA Molecular Holding, S. A.) and 10 μl of the culture supernatant were put into a 384-well half area microplate (black microplate, Costar) and mixed with each other, and then left standing overnight at 4° C. while the light was shielded. Then, the fluorescence intensity (excitation wavelength: 337 nm, measurement wavelength: 620 nm and 665 nm) was measured with a Wallac 1420 multilabel counter (Perkin Elmer life sciences). The Aβ amount was determined from the count rate at each measurement wavelength (10000× Count 665/Count 620), and the amount needed to inhibit Aβ production by 50% (IC50) was calculated from at least six different dosages.

[2] = biological target: T1, Recombinant human BACE1 (Homo sapiens, UniProt P56817); experiment: Assay of BACE 1 inhibiting activity; assay type: biochemical; conditions: Recombinant human BACE1 7.4 nmol/L, substrate peptide 18 nmol/L, pH 5.0, 30° C., 3 hours; read-out: 50% inhibitory concentration against the enzymatic activity (IC50)
T1 construct: purchased R&D Systems
Description: 48.5 μL of substrate peptide solution (Biotin-XSEVNLDAEFRHDSGC-Eu: X═ε-amino-n-capronic acid, Eu=Europium cryptate) was added to each well of 96-hole half-area plate (a black plate: Costar), and after addition of 0.5 μl of the test compound (dissolved in […]) and 1 μl of Recombinant human BACE1 (R&D Systems), the reaction mixture was incubated at 30° C. for 3 hours. The substrate peptide was synthesized by reacting Cryptate TBPCOOH mono SMP (CIS bio international) with Biotin-XSEVNLDAEFRHDSGC (Peptide Institute, Inc.). The final concentrations of the substrate peptide and Recombinant human BACE1 were adjusted to 18 nmol/L and 7.4 nmol/L, respectively, and the reaction was performed in sodium acetate buffer (50 mmol/L sodium acetate, pH 5.0, 0.008% Triton X-100).
After the incubation for reaction, 50 μl of 8.0 μg/ml Streptavidin-XL665 (CIS bio international) dissolved in phosphate buffer (150 mmol/L K2 HPO4—KH2PO4, pH 7.0, 0.008% Triton X-100, 0.8 mol/L KF) was added to each well and left stand at 30° C. for an hour. After then, fluorescence intensity was measured (excitation wavelength: 320 nm, measuring wavelength: 620 nm and 665 nm) using Wallac 1420 multilabel counter (Perkin Elmer life sciences). Enzymatic activity was determined from counting ratio of each wavelength (10,000× Count 665/Count 620) and 50% inhibitory concentration against the enzymatic activity was calculated.

[3] = Metabolism stability test; assay type: in vitro ADME; conditions: human liver microsomes 0.5 mg protein/mL, 1 mmol/L NADPH, 37° C., 30 minutes; 0 minute = 100%
Description: Using commercially available pooled human hepatic microsomes, a test compound is reacted for a constant time, a remaining rate is calculated by comparing a reacted sample and an unreacted sample, thereby, a degree of metabolism in liver is assessed.
A reaction is performed (oxidative reaction) at 37° C. for 0 minute or 30 minutes in the presence of 1 mmol/L NADPH in 0.2 mL of a buffer (50 mmol/L Tris-HCl pH 7.4, 150 mmol/L potassium chloride, 10 mmol/L magnesium chloride) containing 0.5 mg protein/mL of human liver microsomes. After the reaction, 50 μL of the reaction solution is added to 100 μL of a methanol/acetonitrile=1/1 (v/v), mixed and centrifuged at 3000 rpm for 15 minutes. The test compound in the supernatant is quantified by LC/MS/MS, and a remaining amount of the test compound after the reaction is calculated, letting a compound amount at 0 minute reaction time to be 100%.

[4] = biological target: T2, CYP3A4 (Homo sapiens, UniProt P08684); experiment: CYP3A4 fluorescent MBI test; assay type: in vitro ADME; design: host or cells: Escherichia coli; conditions: CYP3A4 expressed in Escherichia coli, substrate 7-BFC, pre-reaction 0 or 30 minutes
Description: The CYP3A4 fluorescent MBI test is a test of investigating enhancement of CYP3A4 inhibition of a compound by a metabolism reaction, and the test was performed using, as CYP3A4 enzyme expressed in Escherichia coli and employing, as an index, a reaction in which 7-benzyloxytrifluoromethylchmarin (7-BFC) is debenzylated by the CYP3A4 enzyme to produce a metabolite, 7-hydroxytrifluoromethylchmarin (HFC) emitting fluorescent light.
The reaction conditions were as follows: substrate, 5.6 μmol/L 7-BFC; pre-reaction time, 0 or 30 minutes; reaction time, 15 minutes; reaction temperature, 25° C. […]
An enzyme in a K-Pi buffer (pH 7.4) and a test drug solution as a pre-reaction solution were added to a 96-well plate at the composition of the pre-reaction, a part of it was transferred to another 96-well plate so that it was 1/10 diluted by a substrate in a K-Pi buffer, NADPH as a co-factor was added to initiate a reaction as an index (without preincubation) and, after a predetermined time of a reaction, acetonitrile/0.5 mol/L Tris(trishydroxyaminomethane)=4/1 was added to stop the reaction. […] For the plate on which each index reaction had been performed, a fluorescent value of 7-HFC which is a metabolite was measured with a fluorescent plate reader. […]

[5] = biological target: T2, CYP3A4; experiment: CYP inhibition test (terfenadine hydroxylation); assay type: in vitro ADME; design: enzyme, pooled human hepatic microsome 0.2 mg protein/mL; from tissue; host or cells: pooled human hepatic microsome; conditions: pooled human hepatic microsome, test drug concentration 1, 5, 10, 20 μmol/L
Description: (§1) Using commercially available pooled human hepatic microsome, and employing, as markers, 7-ethoxyresorufin O-deethylation (CYP1A2), tolbutamide methyl-hydroxylation (CYP2C9), mephenyloin 4′-hydroxylation (CYP2C19), dextromethorphan O-demethylation (CYP2D6), and terfenadine hydroxylation (CYP3A4) as typical substrate metabolism reactions of human main five CYP enzyme forms (CYP1A2, 2C9, 2C19, 2D6, 3A4), an inhibitory degree of each metabolite production amount by a test compound was assessed. […] After the centrifugation at 3000 rpm for 15 minutes, resorufin (CYP1A2 metabolite) in the supernatant was quantified by a fluorescent multilabel counter and tolbutamide hydroxide (CYP2C9 metabolite), mephenyloin 4′ hydroxide (CYP2C19 metabolite), dextrorphan (CYP2D6 metabolite), and terfenadine alcohol (CYP3A4 metabolite) were quantified by LC/MS/MS. Addition of only DMSO being a solvent dissolving a drug to a reaction system was adopted as a control (100%), remaining activity (%) was calculated at each concentration of a test drug added as the solution and IC50 was calculated by reverse presumption by a logistic model using a concentration and an inhibition rate.

[6] = biological target: T3, CYP2C9 (Homo sapiens, UniProt P11712); experiment: CYP inhibition test (tolbutamide methyl-hydroxylation); assay type: in vitro ADME; conditions: pooled human hepatic microsome, test drug concentration 1, 5, 10, 20 μmol/L
T3 construct: enzyme, pooled human hepatic microsome 0.2 mg protein/mL; from tissue; host or cells: pooled human hepatic microsome
Description: as §1

[7] = biological target: T4, CYP2C19 (Homo sapiens, UniProt P33261); experiment: CYP inhibition test (mephenytoin 4'-hydroxylation); assay type: in vitro ADME; conditions: pooled human hepatic microsome, test drug concentration 1, 5, 10, 20 μmol/L
T4 construct: enzyme, pooled human hepatic microsome 0.2 mg protein/mL; from tissue; host or cells: pooled human hepatic microsome
Description: as §1

[8] = biological target: T5, CYP1A2 (Homo sapiens, UniProt P05177); experiment: CYP inhibition test (7-ethoxyresorufin O-deethylation); assay type: in vitro ADME; conditions: pooled human hepatic microsome, test drug concentration 1, 5, 10, 20 μmol/L
T5 construct: enzyme, pooled human hepatic microsome 0.2 mg protein/mL; from tissue; host or cells: pooled human hepatic microsome
T5 sequence (P05177 1-516): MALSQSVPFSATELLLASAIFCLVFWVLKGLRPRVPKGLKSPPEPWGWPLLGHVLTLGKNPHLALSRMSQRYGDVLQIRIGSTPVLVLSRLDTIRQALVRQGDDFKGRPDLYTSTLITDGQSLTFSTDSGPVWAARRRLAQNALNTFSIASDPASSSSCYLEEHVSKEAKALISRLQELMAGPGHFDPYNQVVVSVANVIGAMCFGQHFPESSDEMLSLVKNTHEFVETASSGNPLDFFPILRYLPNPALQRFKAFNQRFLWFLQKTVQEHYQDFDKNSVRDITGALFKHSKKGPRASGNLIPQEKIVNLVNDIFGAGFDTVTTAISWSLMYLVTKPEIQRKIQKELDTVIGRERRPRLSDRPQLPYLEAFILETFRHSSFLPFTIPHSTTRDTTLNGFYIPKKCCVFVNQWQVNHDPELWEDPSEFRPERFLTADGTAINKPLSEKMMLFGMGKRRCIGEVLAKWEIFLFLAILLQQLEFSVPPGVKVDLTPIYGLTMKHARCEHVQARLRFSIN
Description: as §1

[9] = biological target: T6, CYP2D6 (Homo sapiens, UniProt P10635); experiment: CYP inhibition test (dextromethorphan O-demethylation); assay type: in vitro ADME; conditions: pooled human hepatic microsome, test drug concentration 1, 5, 10, 20 μmol/L
T6 construct: enzyme, pooled human hepatic microsome 0.2 mg protein/mL; from tissue; host or cells: pooled human hepatic microsome
Description: as §1

T1 sequence (P56817 46-501): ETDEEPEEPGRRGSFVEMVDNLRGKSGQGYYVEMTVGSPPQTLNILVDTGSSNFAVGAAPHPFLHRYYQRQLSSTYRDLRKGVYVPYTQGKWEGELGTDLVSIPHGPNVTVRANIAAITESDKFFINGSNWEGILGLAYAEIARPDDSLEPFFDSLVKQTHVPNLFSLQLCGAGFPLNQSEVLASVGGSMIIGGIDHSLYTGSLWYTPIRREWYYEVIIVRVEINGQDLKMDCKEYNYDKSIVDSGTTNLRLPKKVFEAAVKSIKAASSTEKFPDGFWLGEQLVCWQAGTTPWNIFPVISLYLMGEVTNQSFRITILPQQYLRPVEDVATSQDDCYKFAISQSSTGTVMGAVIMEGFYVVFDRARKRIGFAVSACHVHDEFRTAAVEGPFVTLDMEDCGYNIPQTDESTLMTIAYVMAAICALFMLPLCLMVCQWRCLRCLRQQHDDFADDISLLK
T2 sequence (P08684 whole entry): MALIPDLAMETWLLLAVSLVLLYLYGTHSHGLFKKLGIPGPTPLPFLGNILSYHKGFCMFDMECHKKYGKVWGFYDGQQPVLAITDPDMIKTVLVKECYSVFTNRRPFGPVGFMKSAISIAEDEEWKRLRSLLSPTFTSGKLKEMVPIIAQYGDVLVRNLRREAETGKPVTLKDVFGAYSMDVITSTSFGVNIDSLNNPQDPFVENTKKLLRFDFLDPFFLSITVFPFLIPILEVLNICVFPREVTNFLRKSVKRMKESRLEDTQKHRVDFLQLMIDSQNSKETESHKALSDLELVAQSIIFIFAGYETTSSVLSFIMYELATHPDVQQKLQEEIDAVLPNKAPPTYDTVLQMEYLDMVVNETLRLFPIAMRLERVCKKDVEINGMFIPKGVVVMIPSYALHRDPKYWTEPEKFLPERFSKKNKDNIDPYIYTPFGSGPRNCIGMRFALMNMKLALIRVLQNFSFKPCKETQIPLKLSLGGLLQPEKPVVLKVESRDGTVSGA
T3 sequence (P11712 whole entry): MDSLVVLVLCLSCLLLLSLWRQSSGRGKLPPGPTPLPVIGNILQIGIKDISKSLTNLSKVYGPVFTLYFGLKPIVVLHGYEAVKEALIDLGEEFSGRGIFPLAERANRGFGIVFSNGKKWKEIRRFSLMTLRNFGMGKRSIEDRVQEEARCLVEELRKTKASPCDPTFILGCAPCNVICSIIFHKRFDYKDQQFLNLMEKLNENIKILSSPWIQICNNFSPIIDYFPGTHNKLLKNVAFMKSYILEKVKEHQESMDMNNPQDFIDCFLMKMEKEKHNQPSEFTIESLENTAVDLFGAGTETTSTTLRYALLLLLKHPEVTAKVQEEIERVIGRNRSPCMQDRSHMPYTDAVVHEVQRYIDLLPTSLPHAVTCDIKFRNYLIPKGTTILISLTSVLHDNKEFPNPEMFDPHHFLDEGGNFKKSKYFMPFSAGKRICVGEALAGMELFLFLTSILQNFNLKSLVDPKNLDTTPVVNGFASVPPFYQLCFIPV
T6 sequence (P10635 whole entry): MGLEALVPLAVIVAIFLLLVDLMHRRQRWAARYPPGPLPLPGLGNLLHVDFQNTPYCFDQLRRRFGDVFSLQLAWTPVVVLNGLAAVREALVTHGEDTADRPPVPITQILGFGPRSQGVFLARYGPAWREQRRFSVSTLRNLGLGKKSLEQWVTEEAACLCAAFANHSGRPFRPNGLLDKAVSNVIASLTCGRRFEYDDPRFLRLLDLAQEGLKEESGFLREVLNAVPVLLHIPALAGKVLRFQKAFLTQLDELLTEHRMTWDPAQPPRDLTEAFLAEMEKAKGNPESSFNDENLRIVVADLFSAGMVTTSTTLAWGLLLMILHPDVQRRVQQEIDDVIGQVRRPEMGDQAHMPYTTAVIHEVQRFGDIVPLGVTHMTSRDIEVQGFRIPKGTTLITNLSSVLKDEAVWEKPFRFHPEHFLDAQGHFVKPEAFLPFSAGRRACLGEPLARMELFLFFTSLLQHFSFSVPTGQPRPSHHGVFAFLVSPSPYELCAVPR
T4 sequence (P33261 whole entry): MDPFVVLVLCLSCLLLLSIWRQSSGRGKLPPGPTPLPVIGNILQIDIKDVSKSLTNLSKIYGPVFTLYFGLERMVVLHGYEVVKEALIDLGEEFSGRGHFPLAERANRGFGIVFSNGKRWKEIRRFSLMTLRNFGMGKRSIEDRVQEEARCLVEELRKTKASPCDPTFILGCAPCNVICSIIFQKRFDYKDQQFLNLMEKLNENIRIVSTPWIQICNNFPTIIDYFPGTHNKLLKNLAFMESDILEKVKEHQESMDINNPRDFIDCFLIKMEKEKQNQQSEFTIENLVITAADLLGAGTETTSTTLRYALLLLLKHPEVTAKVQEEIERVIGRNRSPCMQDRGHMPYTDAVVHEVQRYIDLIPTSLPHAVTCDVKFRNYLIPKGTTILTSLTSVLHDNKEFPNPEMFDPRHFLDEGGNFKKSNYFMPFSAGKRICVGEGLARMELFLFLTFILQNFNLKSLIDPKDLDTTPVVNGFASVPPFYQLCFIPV

Row | SMILES | IC50 [1] | IC50 [2] | other results
1 | NC1=NC2(c3cc(NC(=O)c4ccc(OC(F)F)cn4)ccc3F)CCCC2CO1 (centres unmarked) [Compound I-46] | ≤ 1000 nM | – | –
2 | COc1cncc(-c2ccc(F)c(C34CCCC3COC(N)=N4)c2)c1 (racemic) [Compound I-41] | ≤ 1000 nM | – | –
3 | CC#CCOc1cnc(C(=O)Nc2ccc(F)c(C34COCC3COC(N)=N4)c2)cn1 (racemic) [Compound I-37] | 1 nM | – | –
4 | NC1=NC2(c3cc(NC(=O)c4ccc(Cl)cn4)ccc3F)COCC2CO1 (racemic) [Compound I-36] | ≤ 1000 nM | ≤ 1000 nM | –
5 | C=C1SC(N)=NC2(c3cc(NC(=O)c4ccc(C#N)cn4)ccc3F)COCC12 (racemic) [Compound I-3] | ≤ 1000 nM | 29 nM | –
6 | NC1=NC2(c3cc(-c4cccnc4F)ccc3F)COCC2CO1 (racemic) [Compound I-42] | ≤ 1000 nM | – | remaining amount of the test compound after the reaction [3]: 94.7%
7 | CNC(=O)c1ccc(-c2ccc(F)c(C34COCC3COC(N)=N4)c2)cn1 (racemic) [Compound I-43] | ≤ 1000 nM | – | –
8 | COc1cncc(-c2ccc(F)c(C34COCC3COC(N)=N4)c2)c1 (racemic) [Compound I-44] | ≤ 1000 nM | – | CYP3A4 MBI: difference of IC50 value with and without preincubation [4]: (−) (When the difference was 3 μM or less, the result was defined as (−))
9 | N#Cc1ccc(C(=O)Nc2ccc(F)c(C34CCCC3COC(N)=N4)c2)nc1 (racemic) [Compound I-38] | ≤ 1000 nM | ≤ 1000 nM | –
10 | NC1=NC2(c3cc(-c4cccnc4F)ccc3F)CCCC2CO1 (racemic) [Compound I-40] | ≤ 1000 nM | – | –
11 | Cc1cnc(C(=O)Nc2ccc(F)c(C34COCC3COC(N)=N4)c2)cn1 (racemic) [Compound I-34] | ≤ 1000 nM | – | –
12 | NC1=NC2(c3cc(-c4cncc(Cl)c4)ccc3F)COCC2CO1 (racemic) [Compound I-45] | ≤ 1000 nM | – | –
13 | N#Cc1ccc(C(=O)Nc2ccc(F)c(C34COCC3COC(N)=N4)c2)nc1 (racemic) [Compound I-33] | ≤ 1000 nM | ≤ 1000 nM | IC50 [5]: > 20000 nM; IC50 [6]: > 20000 nM; IC50 [7]: > 20000 nM; IC50 [8]: > 20000 nM; IC50 [9]: > 20000 nM
14 | COc1cnc(C(=O)Nc2ccc(F)c(C34COCC3COC(N)=N4)c2)cn1 (racemic) [Compound I-35] | ≤ 1000 nM | ≤ 1000 nM | –
